In US20250229272A1, “Headspace Eliminating Microtiter Plate Lid” (Agilent Technologies, Inc., priority 2022, published 2025):

Test system: mitochondrial network
Assay: MitoTracker imaging of the mitochondrial network in cells incubated with compounds (Cytation 5)
Type: cell-based
Settings: cells loaded with MitoTracker and hoechst; imaged while incubating with compounds; compared to the control; FIG. 15
Experimental: Cells were loaded with MitoTracker and hoechst as per manufactures instructions. Cells were washed with media then the media was replaced with media containing MitoXpress Xtra. Imaging was carried out as the plate was incubating with compounds using a Cytation 5 with a RFP LED/Filter set. Then, the lid of the present disclosure was placed onto the base of the plate assembly and MitoXpress Assay was run as normal.
The effects in structure are then reflected in the rates of oxygen consumption showing a direct correlation between structure and function. Different compounds lead to different effects. Some promote fusion, some inhibit fusion, some fission some limit fission. The novel insight with this method is to correlate changes in structure of the mitochondria to functional changes in respiration as shown in FIG. 16 in the same well for the first time.

Compound	effects of compounds on the mitochondrial network
CC[C@H]1/C=C/C=C/C[C@@H](C)[C@H](O)[C@@](C)(O)C(=O)[C@@H](C)[C@H](O)[C@@H](C)C(=O)[C@@H](C)[C@H](O)[C@@H](C)/C=C/C(=O)O[C@@H]2[C@H](C)[C@H](CC1)O[C@]1(CC[C@H](C)[C@H](C[C@@H](C)O)O1)[C@H]2C [Oligomycin]	cause the network to condense, and divide
C=C(C)[C@H]1Cc2c(ccc3c2O[C@@H]2COc4cc(OC)c(OC)cc4[C@@H]2C3=O)O1 [Rotenone]	cause the network to condense, and divide
Antimycin	cause the network to condense, and divide
